Assay results as given in patent US4011332A, “Hemorrhagic-lesion producing and anticoagulant-containing compositions and their use” (priority 1974, dated 1977).
Where two headings read alike, the source gives them in different places.

How the values were obtained:
Sprague-Dawley rats [1] = test: animal or person; assay type: in vivo; conditions: for LD100 (interpolated): component (b) with 2 mg/kg 4-hydroxy-2-oxo-3-(1-phenylpropyl)-2H-chromene, single oral dose, 10 days
From the text: Note the number of animals which die within 10 days of the respective administrations.

Sprague-Dawley rats [2] = test: LD5 determination / hemorrhagic stomach and gut lesions after single oral dose; conditions: for LD5: single oral dose, Sprague-Dawley rats, empty stomach; for LD5 (criterion for rat strain to be used): rat strain advisable for the test
Description: A selection of compounds from those suitable for component (b) is, however, made in a simpler manner by determining the LD5 (in mg/kg). […] Determination of the cause of death is effected, e.g., by autopsy of the dead animals.
The rats were kept in groups of 5 and four animals in plastic cages of the type M III. The room temperature was maintained at approximately 23° C. For determining the lethal doses, as mentioned in the following description, the rats were fed on empty stomachs. The animals received the noted compounds [for example, component (a) or (b) or the composition containing both] in a volume of liquid amounting to 5 ml per kg of body weight of the rat. The administration of the liquid was carried out once using a feeding tube introduced into the oesophagus. The doses of the active substances [component (a), component (b) or the composition] were varied. Component (b) was administered as a sodium salt in aqueous solution, and the number of animals which died within 10 days after administration was noted.
The lethal doses (LD5, LD50 and LD100 in mg/kg) were determined by simple linear regression, while the limits of trust were determined by the method of Litchfield and Wilcoxon.
Thereafter autopsy the dead animals to determine the cause of death.

Sprague-Dawley rats [3] = conditions: for LD50 oral, in combination with component (b) 2 mg/kg: with 2 mg/kg 1-phenyl-3,5-di-(2-thienyl)-4-pyrazole acetic acid; for LD50 oral, in combination with component (b) 1 mg/kg: with 1 mg/kg 1-phenyl-3,5-di-(2-thienyl)-4-pyrazole acetic acid
Description: *Ingestion volume: 5 ml/kg, period of observation: 10 days

[4] = test system: female Sprague-Dawley rats; test: Rodenticidal bait test, mortality in 10 days (Example 12, Table IV); assay type: in vivo; conditions: one day, 10 days observation
From the text: Following the rules for the examination of rodenticides against rats and mice (edited by Bundesgeshundheitsamt, Institut fuer Wasser-, Boden- und Lufthygiene, Biologische Bundesanstalt fur Land- und Forstwirtschaft, Staatliches Medizinaluntersuchungsamt, Abt. fuer hygienische Schadlingsbekampfung), female Sprague-Dawley rats weighing about 200 grams, kept in single boxes, were provided with the rodenticidal active substances* alone or in combination (expressed in mg/kg) in 4 grams of bait per rat, i.e. 20 g of bait/kg of body weight. These soft consistent, i.e. not crumbly, baits were prepared from Semmelmehl (i.e. powder prepared by grinding dry white bread) and some water. The rats on an empty stomach were provided with these baits as the only food during one day, tap water was ad libitum.
* 4-hydroxy-2-oxo-3-(3-oxo-1-phenyl-butyl)-2H-chromene and 1,5-diphenyl-3-(p-chlorophenyl)-4-pyrazole acetic acid
Thereafter, the animals were provided with usual standard diet Atromine R for the remaining duration of the test.
The mortality rate was determined during a test period of 10 days.

[5] = test system: wild rats (Rattus norvegicus and Rattus ratus); test: LD100 of combinations in wild rats, single oral dose (Example 3); assay type: in vivo; conditions: full stomachs, 10 days
[6] = alone, 5 ml/kg, observation 10 days

Row | SMILES | LD100 (interpolated) (Sprague-Dawley rats [1]) | LD5 (Sprague-Dawley rats [2]) | other results
1 | O=C(O)Cc1c(-c2ccc(Cl)cc2)nn(-c2ccccc2)c1-c1ccccc1 [B, 1,5-diphenyl-3-(p-chlorophenyl)-4-pyrazole acetic acid] | 1.5 mg/kg | < 5 mg/kg of body weight | –
2 | COc1ccc(-n2nc(-c3ccccc3)c(CC(=O)O)c2-c2ccccc2)cc1 [H, 3,5-diphenyl-1-(p-methoxyphenyl)-4-pyrazole acetic acid] | ~ 10.00 mg/kg | < 15 mg/kg of body weight | –
3 | O=C(O)Cc1c(-c2cccs2)nn(-c2ccccc2Cl)c1-c1cccs1 [M, 1(o-chlorophenyl)-3,5-(2-thienyl)-4-pyrazole acetic acid] | 10 to 50 mg/kg | < 15 mg/kg of body weight | –
4 | CC(C)(C)C(=O)C1C(=O)c2ccccc2C1=O [Component 1.4, 2-pivaloyl-1,3-indandione] | – | – | LD50 oral, alone (Sprague-Dawley rats [3]; [6]): above 5 mg/kg of body weight; LD50 oral, in combination with component (b) 2 mg/kg (Sprague-Dawley rats [3]; 5 ml/kg, observation 10 days): above 1 mg/kg of body weight
5 | CC(=O)CC(c1ccccc1)c1c(O)c2ccccc2oc1=O (stereo not drawn) [Component 1.2, 4-hydroxy-2-oxo-3-(3-oxo-1-phenylbutyl)-2H-chromene] | – | – | LD50 oral, alone (Sprague-Dawley rats [3]; rat, in vivo, po, 240 h): 7.0 mg/kg of body weight; LD50 oral, in combination with component (b) 1 mg/kg (Sprague-Dawley rats [3]; 5 ml/kg, observation 10 days): 4 mg/kg of body weight; LD50 oral, in combination with component (b) 2 mg/kg (Sprague-Dawley rats [3]; 5 ml/kg, observation 10 days): 0.4 mg/kg of body weight; % of Animals which Died ([4]; Component 1.2 100 mg/kg in bait): 80%; % of Animals which Died ([4]; Component 1.2 200 mg/kg in bait): 80%
6 | COc1ccc(-c2c(CC(=O)O)c(-c3ccccc3)nn2-c2ccccc2)cc1 [G, 1,3-diphenyl-5-(p-methoxyphenyl)-4-pyrazole acetic acid] | ~ 10.0 mg/kg | < 15 mg/kg of body weight | –
7 | O=C(O)Cc1c(C2CCCCC2)nn(-c2ccccc2)c1-c1ccccc1 [F, 3-cyclohexyl-1,5-diphenyl-4-pyrazole acetic acid] | 7.5 mg/kg | < 15 mg/kg of body weight | –
8 | CCCCC1C(=O)N(c2ccccc2)N(c2ccccc2)C1=O [phenylbutazone, reference compound] | – | – | LD5 (criterion for rat strain to be used) (Sprague-Dawley rats [2]): 600 mg/kg of body weight
9 | CN1C(O)=C(C(=O)Nc2ccc([N+](=O)[O-])cc2)c2ccccc2S1(=O)=O [R, n-(4-nitrophenyl)-3-hydroxy-2-methyl-2H-1,2-benzothiazine-4-carboxamide-1,1-dioxide] | – | < 50 mg/kg of body weight | –
10 | CN1C(O)=C(C(=O)Nc2ccc(Br)cc2)c2ccccc2S1(=O)=O [Q, n-(4-bromophenyl)-3-hydroxy-2-methyl-2H-1,2-benzothiazine-4-carboxamide-1,1-dioxide] | – | < 50 mg/kg of body weight | –
11 | O=C(O)Cc1c(-c2cccs2)nn(-c2ccc(Cl)cc2)c1-c1cccs1 [D, 1-(p-chlorophenyl)-3,5-di-(2-thienyl)-4-pyrazole acetic acid] | 5.0 mg/kg | < 5 mg/kg of body weight | –
12 | O=C(O)Cc1c(-c2ccco2)nn(-c2ccccc2)c1-c1ccco1 [O, 1-phenyl-3,5-di-(2-furyl)-4-pyrazole acetic acid] | ~ 50 mg/kg | < 50 mg/kg of body weight | –
13 | CC(C(=O)O)c1ccc(C2CCCCC2)c(Cl)c1 (single isomer, unassigned) [N, d(+)-3-chloro-4-cyclohexyl-α-methyl-phenylacetic acid] | 5 to 10 mg/kg | < 15 mg/kg of body weight | –
14 | CC(=O)CC(c1ccc([N+](=O)[O-])cc1)c1c(O)c2ccccc2oc1=O (stereo not drawn) [Component 1.6, 4-hydroxy-2-oxo-3-[3-oxo-1-(4-nitrophenyl)butyl]-2H-chromene] | – | – | LD50 oral, alone (Sprague-Dawley rats [3]; [6]): above 100 mg/kg of body weight; LD50 oral, in combination with component (b) 2 mg/kg (Sprague-Dawley rats [3]; 5 ml/kg, observation 10 days): 1.3 mg/kg of body weight
15 | O=C(O)Cc1c(-c2cccs2)nn(-c2ccccc2)c1-c1cccs1 [A, 1-phenyl-3,5-di-(2-thienyl)-4-pyrazole acetic acid] | ~ 2.0 mg/kg | < 5 mg/kg of body weight | LD100, component (b) ([5]; component (a) 0 mg/kg): 7 mg/kg of rat body weight; LD100, component (b) in combination ([5]; with component (a) 2 mg/kg): 3 mg/kg of rat body weight; LD100, component (b) in combination ([5]; with component (a) 3 mg/kg): 2 mg/kg of rat body weight; LD100, component (b) in combination ([5]; with component (a) 4 mg/kg): 1.5 mg/kg of rat body weight
16 | O=C(O)c1ccccc1O [I, salicylic acid, reference compound] | – | above 100 mg/kg of body weight | –
17 | CN1C(=O)C(C(=O)Nc2ccc(F)cc2F)c2ccccc21 (stereo not drawn) [P, 1-methyl-2',4'-difluoroxindole-3-carboxanilide] | – | < 50 mg/kg of body weight | –
18 | O=C(O)Cc1c(-c2ccccc2)nn(-c2ccccc2)c1-c1ccccc1 [C, 1,3,5-triphenyl-4-pyrazole acetic acid] | 3.0 mg/kg | < 5 mg/kg of body weight | –
19 | COc1ccc2c(c1)c(CC(=O)O)c(C)n2C(=O)c1ccc(Cl)cc1 [E, reference compound] | 7.5 mg/kg | < 15 mg/kg of body weight | LD5 (criterion for rat strain to be used) (Sprague-Dawley rats [2]): approximately 7 mg/kg of body weight
20 | CC(=O)Oc1ccccc1C(=O)O [K, acetylsalicylic acid, reference compound] | – | above 100 mg/kg of body weight | –
21 | CN1C(C(=O)Nc2nccs2)=C(O)c2ccccc2S1(=O)=O [L, n-(2-thiazolyl)-4-hydroxy-2-methyl-2H-1,2-benzothiazine-3-carboxamide-1,1-dioxide] | ≤ 20.00 mg/kg | < 50 mg/kg of body weight | –
22 | O=C1c2ccccc2C(=O)C1c1ccccc1 [2-phenylindandione-(1,3)] | – | – | LD50 oral, alone (Sprague-Dawley rats [3]; [6]): above 100 mg/kg of body weight; LD50 oral, in combination with component (b) 2 mg/kg (Sprague-Dawley rats [3]; 5 ml/kg, observation 10 days): not less than 50 mg/kg of body weight
23 | CCC(c1ccccc1)c1c(O)c2ccccc2oc1=O (stereo not drawn) [Component 1.1, 4-hydroxy-2-oxo-3-(1-phenylpropyl)-2H-chromene, reference compound] | – | – | LD100 (Sprague-Dawley rats [1]; Rattus norvegicus, po, 240 h, anticoagulant alone, Sprague-Dawley rats): 17 mg/kg; LD50 oral, alone (Sprague-Dawley rats [3]; [6]): 3.0 mg/kg of body weight; LD50 oral, in combination with component (b) 1 mg/kg (Sprague-Dawley rats [3]; 5 ml/kg, observation 10 days): 1.7 mg/kg of body weight; LD50 oral, in combination with component (b) 2 mg/kg (Sprague-Dawley rats [3]; 5 ml/kg, observation 10 days): 0.55 mg/kg of body weight; LD100 ([5]; Rattus norvegicus, 240 h, component (b) 0 mg/kg): 45 mg/kg; LD100, component (a) in combination ([5]; with component (b) 1.5 mg/kg): 4 mg/kg of rat body weight; LD100, component (a) in combination ([5]; with component (b) 2 mg/kg): 3 mg/kg of rat body weight; LD100, component (a) in combination ([5]; with component (b) 3 mg/kg): 2 mg/kg of rat body weight
